“And” between values parts separate entries of the source, which are not always exact repeats. Equal entries are not always repeated. Toxic doses and inconclusive results are not listed. How the source made its calls: active means survival T/C of 150% or more; inactive means T/C below 125% in these data.
Test system: P388 leukemia ip, CD2F1 mice, survival T/C
Experiment: NCI In Vivo Anticancer Drug Screen. Data for tumor model P388 Leukemia (intraperitoneal) in CD2F1 (CDF1) mice
Settings: endpoint: median survival time, higher = longer survival
Summary of the method: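 Mice carrying the transplanted tumor received test compound or vehicle. Survival was recorded in each group, and the value is the treated-group measurement divided by that of the vehicle-treated control group.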

[1] = dose: 50.0 mg/kg/injection, schedule: Q01DX005 (ip), vehicle: Klucel (hydroxypropylcellulose) (HPC)
[2] = dose: 100.0 mg/kg/injection, schedule: Q01DX005 (ip), vehicle: Klucel (hydroxypropylcellulose) (HPC)
[3] = dose: 200.0 mg/kg/injection, schedule: Q01DX005 (ip), vehicle: Klucel (hydroxypropylcellulose) (HPC)
[4] = dose: 50.0 mg/kg/injection, schedule: Q01DX005 (ip), vehicle: saline with Tween-80
[5] = dose: 100.0 mg/kg/injection, schedule: Q01DX005 (ip), vehicle: saline with Tween-80
[6] = dose: 200.0 mg/kg/injection, schedule: Q01DX005 (ip), vehicle: saline with Tween-80
[7] = dose: 50.0 mg/kg/injection, schedule: Q01DX009 (ip), vehicle: Klucel (hydroxypropylcellulose) (HPC)
[8] = dose: 100.0 mg/kg/injection, schedule: Q01DX009 (ip), vehicle: Klucel (hydroxypropylcellulose) (HPC)
[9] = dose: 200.0 mg/kg/injection, schedule: Q01DX009 (ip), vehicle: Klucel (hydroxypropylcellulose) (HPC)
[10] = dose: 50.0 mg/kg/injection, schedule: Q01DX009 (ip), vehicle: saline
[11] = dose: 100.0 mg/kg/injection, schedule: Q01DX009 (ip), vehicle: saline
[12] = dose: 200.0 mg/kg/injection, schedule: Q01DX009 (ip), vehicle: saline
[13] = dose: 60.0 mg/kg/injection, schedule: Q01DX005 (ip), vehicle: saline with Tween-80
[14] = dose: 120.0 mg/kg/injection, schedule: Q01DX005 (ip), vehicle: saline with Tween-80
[15] = dose: 240.0 mg/kg/injection, schedule: Q01DX005 (ip), vehicle: saline with Tween-80

Measured: T/C

COC(=O)CC1C2(C)C3=C(C)C(c4ccoc4)CC3OC2C2OC(=O)C3(C)C=CC(=O)C1(C)C23 (configuration not stated)
inactive: dose: 1.25 mg/kg/injection, schedule: Q01DX009 (ip), vehicle: Klucel (hydroxypropylcellulose) (HPC) 91 % of control | dose: 2.5 mg/kg/injection, schedule: Q01DX009 (ip), vehicle: Klucel (hydroxypropylcellulose) (HPC) 105 % of control | dose: 5.0 mg/kg/injection, schedule: Q01DX009 (ip), vehicle: Klucel (hydroxypropylcellulose) (HPC) 86 % of control | dose: 10.0 mg/kg/injection, schedule: Q01DX009 (ip), vehicle: Klucel (hydroxypropylcellulose) (HPC) 86 % of control | dose: 20.0 mg/kg/injection, schedule: Q01DX009 (ip), vehicle: Klucel (hydroxypropylcellulose) (HPC) 102 % of control

c1ccc2c(c1)N=Nc1ccccc1OCCOCCOCCOCCO2
inactive: dose: 100.0 mg/kg/injection, schedule: Q04DX002 (ip), vehicle: saline with Tween-80 106 % of control | dose: 200.0 mg/kg/injection, schedule: Q04DX002 (ip), vehicle: saline with Tween-80 100 % of control | dose: 400.0 mg/kg/injection, schedule: Q04DX002 (ip), vehicle: saline with Tween-80 99 % of control

O=C1C2CC3OC3CC2C(=O)N1CCCCCCN1C(=O)C2CC3OC3CC2C1=O (configuration not stated)
inactive: [1] 91 % of control | [2] 90 % of control | [3] 89 % of control

O=C1/C(=C\c2ccc3c(c2)OCO3)SC(=S)N1CCCN1CCOCC1
inactive: [4] 92 % of control | [5] 90 % of control | [6] 93 % of control

Cc1cccn2c([N+](=O)[O-])cnc12
inactive: dose: 50.0 mg/kg/injection, schedule: Q01DX009 (ip), vehicle: saline with Tween-80 102 % of control | dose: 100.0 mg/kg/injection, schedule: Q01DX009 (ip), vehicle: saline with Tween-80 120 % of control | dose: 200.0 mg/kg/injection, schedule: Q01DX009 (ip), vehicle: saline with Tween-80 113 % of control

CCCCCC(=O)C(=O)c1ccc(O)cc1O
inactive: [7] 89 % of control | [8] 109 % of control | [9] 100 % of control

CCCc1cccc2c3c([nH]c12)C(CC)(CC(=O)O)OCC3 (configuration not stated)
inactive: dose: 100.0 mg/kg/injection, schedule: Q01DX001 (ip), vehicle: Klucel (hydroxypropylcellulose) (HPC) 96 % of control | dose: 200.0 mg/kg/injection, schedule: Q01DX001 (ip), vehicle: Klucel (hydroxypropylcellulose) (HPC) 96 % of control | dose: 400.0 mg/kg/injection, schedule: Q01DX001 (ip), vehicle: Klucel (hydroxypropylcellulose) (HPC) 91 % of control

COc1ccc(OC)c(/C=C(/C)[N+](=O)[O-])c1
inactive: dose: 44.0 mg/kg/injection, schedule: Q04DX003 (ip), vehicle: saline with Tween-80 119 % of control | dose: 66.0 mg/kg/injection, schedule: Q04DX003 (ip), vehicle: saline with Tween-80 117 % of control | dose: 100.0 mg/kg/injection, schedule: Q04DX003 (ip), vehicle: saline with Tween-80 123 % of control | dose: 150.0 mg/kg/injection, schedule: Q04DX003 (ip), vehicle: saline with Tween-80 124 % of control

C=COC(=O)C(Cc1ccc(OC)cc1)NC(=O)OCc1ccccc1 (configuration not stated)
inactive: dose: 100.0 mg/kg/injection, schedule: Q04DX002 (ip), vehicle: Klucel (hydroxypropylcellulose) (HPC) 103 % of control | dose: 200.0 mg/kg/injection, schedule: Q04DX002 (ip), vehicle: Klucel (hydroxypropylcellulose) (HPC) 91 % of control | dose: 400.0 mg/kg/injection, schedule: Q04DX002 (ip), vehicle: Klucel (hydroxypropylcellulose) (HPC) 94 % of control

CC(C)(C)C(=O)NC(Cc1cnc[nH]1)C(=O)O (configuration not stated)
inactive: [10] 100 % of control | [11] 106 % of control | [12] 108 % of control

Clc1ccc(C2SC=Cc3ccccc32)cc1 (configuration not stated)
inactive: dose: 12.5 mg/kg/injection, schedule: Q01DX009 (ip), vehicle: Klucel (hydroxypropylcellulose) (HPC) 105 % of control and 113 % of control | dose: 25.0 mg/kg/injection, schedule: Q01DX009 (ip), vehicle: Klucel (hydroxypropylcellulose) (HPC) 105 % of control and 115 % of control | [7] 104 % of control and 112 % of control | [8] 116 % of control and 122 % of control | [9] 122 % of control and 95 % of control

COc1ccc(C(C)c2cc3c(cc2OC)OCO3)c(C)c1 (configuration not stated)
inactive: [1] 116 % of control | [2] 92 % of control | [3] 119 % of control

N#Cc1c(C(=O)NN)cc(-c2cccc3ccccc23)[nH]c1=O
inactive: [4] 107 % of control | [5] 103 % of control

C=CCC(O)C(=O)OC1CC(C)CCC1C(C)(C)c1ccccc1 (configuration not stated)
inactive: [13] 106 % of control | [14] 100 % of control | [15] 107 % of control

COc1ccc(C2C3=C(CCCC3=O)Oc3cc4c(cc32)OCO4)cc1 (configuration not stated)
inactive: dose: 7.5 mg/kg/injection, schedule: Q01DX005 (ip), vehicle: saline with Tween-80 100 % of control | dose: 15.0 mg/kg/injection, schedule: Q01DX005 (ip), vehicle: saline with Tween-80 94 % of control | dose: 30.0 mg/kg/injection, schedule: Q01DX005 (ip), vehicle: saline with Tween-80 92 % of control | [13] 90 % of control and 91 % of control

C[Si](C)(C)N1CCOC1=O
inactive: [13] 109 % of control | [14] 103 % of control | [15] 108 % of control

C=C1CC23CCC4C(C)(C(=O)O)CCCC4(C)C2CCC1C3 (configuration not stated)
inactive: [4] 116 % of control | [5] 116 % of control | [6] 117 % of control | dose: 400.0 mg/kg/injection, schedule: Q01DX005 (ip), vehicle: saline with Tween-80 107 % of control

CCOC(=O)N1CCc2cc(OC)c(OC)cc2/C1=C/c1cc(OC)c(OC)cc1Br
inactive: dose: 12.5 mg/kg/injection, schedule: Q01DX009 (ip), vehicle: other 94 % of control | dose: 25.0 mg/kg/injection, schedule: Q01DX009 (ip), vehicle: other 96 % of control | dose: 50.0 mg/kg/injection, schedule: Q01DX009 (ip), vehicle: other 96 % of control | dose: 100.0 mg/kg/injection, schedule: Q01DX009 (ip), vehicle: other 93 % of control | dose: 200.0 mg/kg/injection, schedule: Q01DX009 (ip), vehicle: other 93 % of control

CC(=O)SCC1C(=O)CCCC1=O
inactive: dose: 12.5 mg/kg/injection, schedule: Q04DX003 (ip), vehicle: saline with Tween-80 104 % of control | dose: 25.0 mg/kg/injection, schedule: Q04DX003 (ip), vehicle: saline with Tween-80 101 % of control and 109 % of control | dose: 50.0 mg/kg/injection, schedule: Q04DX003 (ip), vehicle: saline with Tween-80 100 % of control and 124 % of control

CN(C)C1=NC1(C)C
inactive: [10] 100 % of control | [11] 102 % of control | [12] 91 % of control

O=[N+]([O-])c1cc(CN(CCO)CCO)c(O)c2ncccc12
inactive: [13] 104 % of control | [14] 109 % of control

COc1cc(C2CC(C)(O)Oc3cc4c(cc32)OCO4)cc(OC)c1O (configuration not stated)
inactive: [13] 95 % of control | [14] 98 % of control | [15] 95 % of control

Cc1cnc(C#N)c(C#N)n1
inactive: dose: 6.25 mg/kg/injection, schedule: Q01DX005 (ip), vehicle: Klucel (hydroxypropylcellulose) (HPC) 103 % of control | dose: 12.5 mg/kg/injection, schedule: Q01DX005 (ip), vehicle: Klucel (hydroxypropylcellulose) (HPC) 106 % of control | dose: 25.0 mg/kg/injection, schedule: Q01DX005 (ip), vehicle: Klucel (hydroxypropylcellulose) (HPC) 100 % of control | [1] 116 % of control

From PubChem BioAssay AID330 (DTP/NCI, 2004)
